Patent US20070111251A1, “Chemical address tags” (priority 2003, published 2007)

What was measured:
dsDNA = assay: Fluorometric titration of styryl dyes with dsDNA in buffer solution; format: binding, Salmon; details: for em^free / Øf^free: free dye; for fluorescence emission increase with DNA versus free compound: highest concentration of DNA tested, 50 μg mL^−1; for Øf^DNA: quantum yield with dsDNA; for Øf^free: quantum yield; for max: spectrophotometric properties of the styryl dyes; for em^DNA: with dsDNA
Method: In some embodiments, the synthesis of compounds B was achieved by refusing with the pyridine derivatives and iodomethane for 2 hours, and compound B crystallized out in ethyl acetate. The condensation with aldehydes (A) and compound B was performed by refusing with piperidine for 2 hours in EtOH. After cooling to room temperature, the crystallized compounds were filtered and washed with ethyl acetate. With these purified compounds, the fluorescence intensity change upon addition of DNA was tested.
With a series of concentrations of dsDNA (double stranded DNA) added to compound 1, a linear increase in the fluorescence intensities was observed. (FIG. 17). […] At the highest concentration of DNA tested (50 μg mL^−1), the fluorescence emission reached up to 13.3 times higher than that of the free compound. Briefly, FIGS. 18A-18C show the absorption and fluorescence spectra of compounds 1, 2, and 3 (Dye 1, 2, 3 [50 μM], dsDNA [50 μg mL^−1]). A blue shift of 17 nm in the emission wavelength upon DNA addition was observed, without a significant excitation wavelength shift. The structure of compound 1 includes a 2,4,5-trimethoxy group from the benzaldehyde moiety and a unique adamantyl pyridinium functionality.
Unless otherwise noted, starting materials and solvents were purchased from commercial suppliers, and used without purification. Ethanol (EtOH) and ethyl acetate (EA) from Acros Organics (Fisher Scientific, UK) were used as the reaction solvents without any prior purification. Salmon testes solid dsDNA, and phosphate buffered saline (PBS) (NaCl 120 mM, KCl 2.7 mM, and phosphate buffer 10 mM, pH=7.4 at 24° C.) were purchased from Sigma-Aldrich and needed no further purification. Fluorescence intensities were measured by a Jobin Yvon Horiba FluoroMAX-3 fluorimeter (Horiba Group, Kyoto, Japan) with a quartz cuvette cell (10 mm×10 mm×4.5 cm; Starna (Atascadero, Calif.). ^1H-NMR (200 MHz) spectra were determined on Gemini 200 spectrometer (Varian, Inc., Palo Alto, Calif.). Chemical shifts were reported in parts per million (ppm) relative to the line of a singlet at 2.50 ppm for DMSO-d6 and coupling constants (j) are in Hertz (Hz). The following abbreviations are used for spin multiplicity: s=singlet, d=doublet, t=triplet, m=multiplet, and b=broad. All dye products were identified by LC-MS from Agilent Technology (Palo Alto, Calif.), using a C18 column (20×4.0 mm), with 4 minutes elution using a gradient of 5-95% CH3CN (containing 1% acetic acid)-H2O (containing 1% acetic acid), with UV detector at %=400 nm and an electrospray ionization source.

[1] = tested on: live UACC-62 human melanoma cells; assay: Cell-based screening of extended styryl library: nuclear staining of live cells; details: live UACC-62 cells; compounds 1-3 at 500 μM
Source text: In one preferred embodiment, an extended styryl dye library, composed of 855 compounds, was synthesized (See, Example 7) and screened for the subcellular localization in live […] human melanoma cells on glass bottom 96-well plates by the combinatorial library synthesis methods disclosed herein. […] The compounds were resynthesized on large scale for further study. (FIG. 16).
Therefore, both 2,4,5-trunethoxy groups and the adamantyl group are important in the specific interaction of compound 1 and DNA. The three related compounds 1, 2, and 3 were incubated in live UACC-62 human melanoma cells to compare their nuclear localization properties. (FIG. 19).

[2] = pyridine derivatives; cited from earlier work
HeLa cells = assay: Kinetic imaging of NBD-triazine probe uptake and sequestration, fitted to nested two-compartment transport model; format: cell-based; details: median over optimal solutions within 5% of the best fit
How it was run: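 HeLa cells (3000/well, plated 24 h earlier) imaged live with 10 μM NBD probe in RPMI containing 1.0 mM bromophenol blue, about 2 h for influx, then washed and imaged 6 h for efflux, every ~7 min. Perinuclear pixel-intensity CV fitted to a nested two-compartment transport model by simulated annealing.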

| Compound | blue shift in the emission wavelength upon DNA addition (dsDNA) | emission wavelength (dsDNA) | excitation wavelength (dsDNA) | em^free (dsDNA) | linear fluorescence response range (dsDNA; in PBS, without self-quenching or wavelength shifts) | Øf^DNA (dsDNA) | Øf^free (dsDNA) | max (dsDNA) | em^DNA (dsDNA) | median Pap(cyto) (apparent partition coefficient between extracellular medium and cytosol) (HeLa cells) | median Pap(ves) (apparent partition coefficient between cytosol and intracellular vesicles, k(ves)in/k(ves)out) (HeLa cells) | fluorescence intensity change upon addition of DNA (dsDNA) | Øf^DNA/Øf^free (dsDNA) | fluorescence emission increase with DNA versus free compound (dsDNA) | nuclear staining / nuclear localization in live cells [1] | pKa [2] |
| --- | --- | --- | --- | --- | --- | --- | --- | --- | --- | --- | --- | --- | --- | --- | --- | --- |
| COc1ccc(CCNc2nc(NCCCCCCNc3ccc([N+](=O)[O-])c4nonc34)nc(NCCc3ccccn3)n2)cc1 [Compound D9] |  |  |  |  |  |  |  |  |  | 0.06 | 99497.01 |  |  |  |  | ~6.0 |
| COc1ccc(C=Cc2cc[n+](C34CC5CC(CC(C5)C3)C4)cc2)c(OC)c1OC.[Br-] [Compound 3] |  |  |  | 491 nm |  | 0.0037 | 0.0024 | 370 nm | 592 nm |  |  |  | 1.5 | 1.5 fold | stronger fluorescence backgrounds and spread throughout the cytoplasm |  |
| COc1cccc(CNc2nc(NCCCCCCNc3ccc([N+](=O)[O-])c4nonc34)nc(NCCc3ccccn3)n2)c1 [Compound B9] |  |  |  |  |  |  |  |  |  | 15351.10 | 100.42 |  |  |  |  | ~6.0 |
| O=[N+]([O-])c1ccc(NCCCCCCNc2nc(NCCc3ccccn3)nc(NCCC(c3ccccc3)c3ccccc3)n2)c2nonc12 [Compound F9] |  |  |  |  |  |  |  |  |  | 2989.27 | 2940.20 |  |  |  |  | ~6.0 |

More lines, main results first:

| blue shift in the emission wavelength upon DNA addition (dsDNA) | emission wavelength (dsDNA) | excitation wavelength (dsDNA) | em^free (dsDNA) | linear fluorescence response range (dsDNA; in PBS, without self-quenching or wavelength shifts) | Øf^DNA (dsDNA) | Øf^free (dsDNA) | max (dsDNA) | em^DNA (dsDNA) | median Pap(cyto) (apparent partition coefficient between extracellular medium and cytosol) (HeLa cells) | median Pap(ves) (apparent partition coefficient between cytosol and intracellular vesicles, k(ves)in/k(ves)out) (HeLa cells) | Compound | fluorescence intensity change upon addition of DNA (dsDNA) | Øf^DNA/Øf^free (dsDNA) | fluorescence emission increase with DNA versus free compound (dsDNA) | nuclear staining / nuclear localization in live cells [1] | pKa [2] |
| --- | --- | --- | --- | --- | --- | --- | --- | --- | --- | --- | --- | --- | --- | --- | --- | --- |
| 17 nm | 583 nm | 413 nm | 583 nm | 0.05 to 100 µM | 0.0032 | 0.00024 | 413 nm | 566 nm |  |  | COc1cc(OC)c(OC)cc1C=Cc1cc[n+](C23CC4CC(CC(C4)C2)C3)cc1.[Br-] [Compound 1, 2-[4-[5-(trimethyoxy)phenyl]-ethenyl-1-adamantyl]-4-methylpyridinium bromide] | strong fluorescence increase | 13.3 | 13.3 fold | clearly stains the nucleus of live cells more selectively |  |
|  |  |  | 553 nm |  | 0.022 | 0.0051 | 366 nm | 520 nm |  |  | COc1cc(C=Cc2cc[n+](C34CC5CC(CC(C5)C3)C4)cc2)cc(OC)c1OC.[Br-] [Compound 2] |  | 4.3 | 4.3 fold | stronger fluorescence backgrounds and spread throughout the cytoplasm |  |
